Target: Aβ–fibrinogen interaction (Homo sapiens, UniProt P05067)
Assay: AlphaLISA
Assay type: binding

Sequence of Aβ–fibrinogen interaction (P05067 672-713): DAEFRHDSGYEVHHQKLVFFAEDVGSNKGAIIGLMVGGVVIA

## CSc1ccc(/C=C2/C(C)=C(CC(=O)O)c3cc(F)ccc32)cc1 [sulindac sulfide]
  Inhibition of the Aβ–fibrinogen interaction in AlphaLISA (in words): no effect
